# Results as given in article PMC3375280 (PLoS ONE, 2012).
# Values joined by “and” are separate entries in the source; they are usually repeats but may differ in a detail not shown here. Equal entries are not always repeated.
# Experiments:
# [1] = target: T1, AT1 wild-type (WT) receptor (Rattus norvegicus, UniProt P25095); experiment: 125I-[Sar1,Ile8]AngII competition binding, wild-type receptor; settings: WT; for Kd: COS1 cell membranes, 100 pM 125I-[Sar1,Ile8]AngII, 1 h 22°C, read-out: Binding affinity (Kd); for Kd ratio relative to olmesartan (in parentheses): compound Kd / olmesartan Kd
# T1 construct: expressed in transfected cells; host or cells: COS1
# T1 sequence (P25095 1-359): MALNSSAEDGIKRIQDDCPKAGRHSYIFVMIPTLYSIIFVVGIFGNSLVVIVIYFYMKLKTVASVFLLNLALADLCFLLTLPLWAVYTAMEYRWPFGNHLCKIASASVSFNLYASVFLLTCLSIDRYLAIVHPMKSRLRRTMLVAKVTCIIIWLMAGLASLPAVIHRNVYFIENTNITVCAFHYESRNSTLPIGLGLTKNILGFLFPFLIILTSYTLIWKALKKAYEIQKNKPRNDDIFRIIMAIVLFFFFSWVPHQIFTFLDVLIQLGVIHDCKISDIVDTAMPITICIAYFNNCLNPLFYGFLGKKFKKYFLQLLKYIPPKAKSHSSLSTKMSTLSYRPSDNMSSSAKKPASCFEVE
# Protocol: The Kd and Bmax values of receptor binding were determined by ^125I-[Sar^1, Ile^8] […] Membranes expressing the WT or mutant AT1 receptors were incubated with 100 pM ^125I-[Sar^1, Ile^8] […] The binding reaction was terminated by filtering the incubation mixture through Whatman GF/C glass filters, and the residues were extensively washed further with binding buffer. The bound ligand fraction was determined from the counts per minute (cpm) remaining on the membrane. Binding kinetics values were determined as previously described.
# [2] = target: T2, wild-type (WT) AT1 receptor (Rattus norvegicus, UniProt P25095); experiment: inositol phosphate (IP) production in COS1 cells expressing WT AT1 receptor; settings: 1 µM compound, vs basal IP production
# T2 sequence (P25095 1-359): T1 sequence (P25095 1-359)
# Protocol: The test compounds were added 1 h before the measurement of IP.
# The WT and mutant AT1 receptors were transiently transfected into COS1 cells using Lipofectamine 2000 liposomal reagent (Roche Applied Science) according to the manufacturer’s instructions.
# Cells expressing the WT and mutant AT1 receptors were incubated for 30 minutes at 22°C with or without the indicated concentrations of ARBs. The cells were washed-out once with the use of excess cold HBSS, and used in an IP production study. Total soluble IP was measured by the perchloric acid extraction method, as described previously [16].
# [3] = system: AT1 receptor; settings: Cys76 accessible; cited from earlier work
SMILES,Kd [1],Kd ratio relative to olmesartan (in parentheses) [1],Pharmacological behaviour toward IP production (agonism / neutral antagonism / inverse agonism) [2],"% inhibition of 125I-[Sar1,Ile8]AngII binding by MTSEA+ reagent [3]"
CCCc1nc(C(C)C)c(C(N)=O)n1Cc1ccc(-c2cc(Cc3ccc(O)cc3)ccc2-c2nnn[nH]2)cc1 [R795100],179 ± 84 nM,,agonism,
"CS(=O)(=O)SCCN [MTSEA^+, methanethiosulphonate ethyl-ammonium]",,,,approximately 30%
CCCc1nc(C(C)(C)O)c(C(N)=O)n1Cc1ccc(-c2cc(Cc3ccccc3)ccc2-c2nnn[nH]2)cc1 [R801832],276 ± 22 nM,100 fold and 120 fold,agonism,

# Further lines, with some results ahead:
Kd [1],Kd ratio relative to olmesartan (in parentheses) [1],Pharmacological behaviour toward IP production (agonism / neutral antagonism / inverse agonism) [2],SMILES,"% inhibition of 125I-[Sar1,Ile8]AngII binding by MTSEA+ reagent [3]"
21 ± 10 nM,9.1 fold,inverse agonism,CCCc1nc(C(C)(C)O)c(C(=O)O)n1Cc1ccc(-c2cc(Cc3ccc(O)cc3)ccc2-c2nnn[nH]2)cc1 [R781253],
396 ± 80 nM,172 fold,inverse agonism,CCCc1nc(C(C)(C)O)c(C(=O)O)n1Cc1ccc(-c2cc(Cc3ccc(OCOC)cc3)ccc2-c2nnn[nH]2)cc1 [R781254],
125 ± 26 nM,,neutral antagonism,CCCc1nc(C(C)(C)O)c(C(=O)O)n1Cc1ccc(-c2cc(Cc3cccc(O)c3)ccc2-c2nnn[nH]2)cc1 [R791212],
